ChEMBL document CHEMBL5154741, “Antibacterial alkylguanidino ureas: Molecular simplification approach, searching for membrane-based MoA” (Eur J Med Chem, 2022)
≈ marks a conversion by molar mass, not a printed value. Calls of active or inactive are those of the source. No cut-off for these calls is given here.

Assays:
[1] = Hemolytic activity against human RBC at 1 ug/ml incubated for 30 mins (reference value: 0%); type: toxicity, cell-based, Erythrocyte; conditions: human red blood cells (erythrocytes), at 1 µg/mL, read-out: Activity
Pseudomonas aeruginosa = test: Antibacterial activity against Pseudomonas aeruginosa ATCC 27853 assessed as bacterial growth inhibition incubated for 18 hrs by micro-dilution broth method; type: functional
Cell membrane [2] = test: Disruption of membrane integrity in Escherichia coli MG1655 assessed as increase in PI positive cells at 16 ug/ml measured after 1 hr by SYTO9/PI staining based confocal laser scanning microscope analysis; type: subcellular; conditions: dose 16.0 µg/ml
Cell membrane [3] = test: Disruption of membrane integrity in Pseudomonas aeruginosa ATCC 27853 assessed as increase in PI positive cells at 16 ug/ml measured after 1 hr by SYTO9/PI staining based confocal laser scanning microscope analysis; type: subcellular; conditions: dose 16.0 µg/ml
Enterobacter cloacae = test: Antibacterial activity against Enterobacter cloacae VA-417/02 assessed as bacterial growth inhibition incubated for 18 hrs by CLSI based micro-dilution broth method; type: functional
[4] = Hemolytic activity against human RBC at 32 ug/ml incubated for 30 mins (reference value: 0%); type: toxicity, cell-based, Erythrocyte; conditions: human red blood cells (erythrocytes), at 32 µg/mL, read-out: Activity
[5] = Apparent permeability of the compound across bacterial inner membrane mimic pure POPG in PBS buffer at pH 7.4 incubated for 5 hrs by PAMPA based UV-Vis spectrophotometric analysis; type: ADME
Cell membrane [6] = test: Disruption of membrane integrity in Pseudomonas aeruginosa ATCC 27853 assessed as increase in PI uptake at 16 ug/ml measured every 15 mins for 6 hrs by SYTO9/PI staining based fluorometric analysis; conditions: dose 16.0 µg/ml
[7] = Hemolytic activity against human RBC at 64 ug/ml incubated for 30 mins (reference value: 0%); type: toxicity, cell-based, Erythrocyte; conditions: human red blood cells (erythrocytes), at 64 µg/mL, read-out: Activity
[8] = Hemolytic activity against human RBC at 2 ug/ml incubated for 30 mins (reference value: 0%); type: toxicity, cell-based, Erythrocyte; conditions: human red blood cells (erythrocytes), at 2 µg/mL, read-out: Activity

N=C(NCCCCCCCCNC(N)=O)NCC1CC1.O=C(O)C(F)(F)F
hemolysis at 0.5 h, 1 ug/ml [1]: 0%
MIC (Pseudomonas aeruginosa): 16 mg/L
Activity (Cell membrane [2]): Active
Activity (Cell membrane [3]): Active
MBC (Enterobacter cloacae): 8 mg/L
MIC (Enterobacter cloacae): 4 mg/L
hemolysis at 0.5 h, 32 ug/ml [4]: 0%
Papp at 5 h [5]: 61 nm/s
Activity (Cell membrane [6]): Active
hemolysis at 0.5 h, 64 ug/ml [7]: 0%
hemolysis at 0.5 h, 2 ug/ml [8]: 0%

N=C(N)NCCCCCCCCN(CCCCCCCCNC(=N)NCC1CC1)C(=O)N(CCCCCCCCNC(=N)NCC1CC1)CCCCCCCCNC(=N)NCC1CC1.O=C(O)C(F)(F)F
hemolysis at 0.5 h, 1 ug/ml [1]: 0%
MIC (Pseudomonas aeruginosa): 8 mg/L
Activity (Cell membrane [2]): Active
Activity (Cell membrane [3]): Active
MBC (Enterobacter cloacae): 2 mg/L
MIC (Enterobacter cloacae): 2 mg/L
hemolysis at 0.5 h, 32 ug/ml [4]: 3.3%
Papp at 5 h [5]: 2.6 nm/s
Activity (Cell membrane [6]): Active
hemolysis at 0.5 h, 64 ug/ml [7]: 8.1%
hemolysis at 0.5 h, 2 ug/ml [8]: 0%

CCCCCCCCN(CCCCCCCCNC(=N)NCC1CC1)C(=O)N(CCCCCCNC(=N)NCC1CC1)CCCCCCNC(=N)NCC1CC1
hemolysis at 0.5 h, 1 ug/ml [1]: 0%
MIC (Pseudomonas aeruginosa): 16 mg/L (≈ 20.3 µM)
Activity (Cell membrane [2]): Active
Activity (Cell membrane [3]): Active
MBC (Enterobacter cloacae): 8 mg/L (≈ 10.2 µM)
MIC (Enterobacter cloacae): 8 mg/L (≈ 10.2 µM)
hemolysis at 0.5 h, 32 ug/ml [4]: 8.4%
Papp at 5 h [5]: 1.8 nm/s
Activity (Cell membrane [6]): Active
hemolysis at 0.5 h, 64 ug/ml [7]: 46.4%
hemolysis at 0.5 h, 2 ug/ml [8]: 0%
